Assay results published in patent US12459898B2, “Polycationic amphiphiles as antimicrobial agents and methods using same” (Temple University-Of The Commonwealth System of Higher …, priority 2016, dated 2025).
Converted amounts (≈) assume the structure as drawn.

How the values were obtained:
Assay type in all cases: cell-based
[1] = system: Enterococcus faecalis (OG1RF); assay: Minimum inhibitory concentration (MIC), E. faecalis; conditions: MH media, 37° C., 72 hours, visual growth
Procedure: (§1) As used herein, the term “minimum inhibitory concentration (MIC)” refers to the lowest concentration of an antimicrobial agent that will inhibit the visible growth of a microorganism after overnight incubation. MIC values against bacteria, for example, the Gram-positive Staphylococcus aureus and Enterococcus faecalis and the Gram-negative Escherichia coli and Pseudomonas aeruginosa were determined by standard methods. See also P. A. Wayne, Methods for Dilution Antimicrobial Tests for Bacteria that Grow Aerobically; Approved Standard, Ninth Edition, 2012, CLSI Document M07-A9, Vol. 32 No. 2, which is incorporated by reference herein in its entirety.
(§2) For all biological assays, laboratory strains of methicillin-susceptible Staphylococcus aureus MSSA (SH1000), Enterococcus faecalis (OG1RF), Escherichia coli (MC4100), Pseudomonas aeruginosa (PAO1), community-acquired methicillin-resistant Staphylococcus aureus CA-MRSA (USA300-0114), and hospital-acquired methicillin-resistant Staphylococcus aureus HA-MRSA (ATCC 33591) were grown with shaking at 37° C. overnight from freezer stocks in 10 mL of the indicated media.
(§3) Compounds were serially diluted two-fold from stock solutions to yield twelve test concentrations. Overnight S. aureus, E. faecalis, E. coli, P. aeruginosa, USA300-0114 (CA-MRSA), and ATCC 33591 (HA-MRSA) cultures diluted to ca. 10^6 cfu/mL in MH media and 100 μL were inoculated into each well of a U-bottom 96-well plate (BD Biosciences, BD 351177) containing 100 μL of compound solution. Plates were incubated statically at 37° C. for 72 hours upon which time wells were evaluated visually for bacterial growth. The MIC was determined as the lowest concentration of compound resulting in no bacterial growth visible to the naked eye, based on the majority of three independent experiments. Aqueous DMSO controls were conducted as appropriate for each compound.

[2] = system: hospital-acquired methicillin-resistant Staphylococcus aureus HA-MRSA (ATCC 33591); assay: microbe, parasite or virus in culture; conditions: for MIC: Staphylococcus aureus, 72 h, read-out: MIC, HA-MRSA
Procedure: as §1, §2, §3

[3] = system: Escherichia coli (MC4100); assay: Minimum inhibitory concentration (MIC), E. coli; conditions: MH media, 37° C., 72 hours, visual growth
Procedure: as §1, §2, §3

[4] = system: Pseudomonas aeruginosa (PAO1); assay: Minimum inhibitory concentration (MIC), P. aeruginosa; conditions: MH media, 37° C., 72 hours, visual growth
Procedure: as §1, §2, §3

[5] = system: red blood cells (mechanically defibrinated sheep blood); assay: Red blood cell (RBC) lysis assay (Lysis20); conditions: for Lysis20 (highest concentration at which <20% of RBCs are lysed): sheep RBCs in PBS, 37° C., 1 hour, absorbance 540 nm, Table 1
Text: These assessments followed standard protocols (Minbiole et al., 2016, Tetrahedron, 72: 3559-3566, Forman et al., 2016, ChemMedChem, 11: 1401-1405, Forman et al., 2016, ChemMedChem, 11: 958-962, Mitchell et al., 2015, ChemBioChem, 16: 2299-2303, Jennings et al., 2015, ACS Inf. Dis, 1: 304-308, Paniak et al., 2014, Bioorg. Med. Chem. Lett, 24: 5824-5828, Ator et al., 2014, Bioorg. Med. Chem. Lett, 24: 3706-3709, Jennings et al., 2014, ChemBioChem, 15: 2211-2215, Black et al., 2014, Bioorg. Med. Chem. Lett, 24, 99-102, Grenier et al., 2012, Bioorg. Med. Chem. Lett, 22: 4055-4058).
RBC lysis assays were performed on mechanically defibrinated sheep blood (Hemostat Labs: DSB030). 1.5 mL of blood was placed into a microcentrifuge tube and centrifuged at 10,000 rpm for ten minutes. The supernatant was removed and the cells were resuspended with 1 mL of phosphate-buffered saline (PBS). The suspension was centrifuged as previously, the supernatant was removed, and cells were resuspended two more times. The final cell suspension was diluted twentyfold with PBS. The twentyfold suspension dilution was then aliquoted into microcentrifuge tubes containing compound serially diluted in PBS. TritonX (1% by volume) served as a positive control (100% lysis marker) and sterile PBS served as a negative control (0% lysis marker). Samples were then placed in an incubator at 37° C. and shaken at 200 rpm. After 1 hour, the samples were centrifuged at 10,000 rpm for ten minutes. The absorbance of the supernatant was measured with a UV spectrometer at a 540 nm wavelength.

[6] = system: methicillin-susceptible Staphylococcus aureus MSSA (SH1000); assay: Minimum inhibitory concentration (MIC), S. aureus; conditions: MH media, 37° C., 72 hours, visual growth
Procedure: as §1, §2, §3

[7] = system: community-acquired methicillin-resistant Staphylococcus aureus CA-MRSA (USA300-0114); assay: Minimum inhibitory concentration (MIC), CA-MRSA; conditions: MH media, 37° C., 72 hours, visual growth
Procedure: as §1, §2, §3

SMILES	MIC [1] [µM]	MIC [2] [µM]	antibacterial resistance (increase in MIC) ([2]; strain not given, Table 1 fits HA-MRSA vs S. aureus) [fold]	MIC [3] [µM]	MIC [4] [µM]	Lysis20 (highest concentration at which <20% of RBCs are lysed) [5] [μm]	MIC [6] [µM]	MIC [7] [µM]	lysis20 (hemolysis activity) ([5]; sheep RBCs, values restated in text) [µM]
CCCCCCCC[n+]1ccc(CCCc2cc[n+](CCCCCCCC)cc2)cc1 [2Pyr-8,8]	63	63	8	32	> 250	125	8	16	
CCCCCCCCCC[n+]1ccc(CCCc2cc[n+](CCCCCCCCCC)cc2)cc1 [2Pyr-10,10]	1	1		0.5	16	16	0.5	0.25	
CCCCCCCCCCCC[n+]1ccc(CCCc2cc[n+](CCCCCCCCCCCC)cc2)cc1 [2Pyr-12,12]	0.5	0.5		1	4	4	0.5	0.25	4
CCCCCCCCCCCCC[n+]1ccc(CCCc2cc[n+](CCCCCCCCCCCCC)cc2)cc1 [2Pyr-13,13]	0.5	0.5		1	8	16	0.5	0.25	
CCCCCCCCCCCCCC[n+]1ccc(CCCc2cc[n+](CCCCCCCCCCCCCC)cc2)cc1 [2Pyr-14,14]	1	2		4	250	63	8	2	
CCCCCCCCCCCCCCCC[n+]1ccc(CCCc2cc[n+](CCCCCCCCCCCCCCCC)cc2)cc1 [2Pyr-16,16]	8	8		63	> 250	63	4	4	
CCCCCCCCCCCCCCCCCC[n+]1ccc(CCCc2cc[n+](CCCCCCCCCCCCCCCCCC)cc2)cc1 [2Pyr-18,18]	8	16		> 250	> 250	32	8	4	
c1cc(CCCc2ccncc2)ccn1 [Compound 2Pyr, 1,3-di-(4-pyridyl)propane, reference compound]	> 250	> 250		> 250	> 250	>250	> 250	> 250	
c1cncc(CN(Cc2cccnc2)Cc2cccnc2)c1 [Compound M3Pyr, reference compound]	> 250	250 (≈ 72.6 µg/mL)		> 250	> 250	>250	250 (≈ 72.6 µg/mL)	250 (≈ 72.6 µg/mL)	
c1cc(CN(Cc2ccncc2)Cc2ccncc2)ccn1 [Compound P3Pyr, reference compound]	> 250	> 250		> 250	> 250	125	> 250	> 250	
CCCCCCCC[n+]1cccc(CN(Cc2ccc[n+](CCCCCCCC)c2)Cc2ccc[n+](CCCCCCCC)c2)c1 [M3Pyr-8,8,8]	8	2		8	32	>250	2	1	
CCCCCCCCCC[n+]1cccc(CN(Cc2ccc[n+](CCCCCCCCCC)c2)Cc2ccc[n+](CCCCCCCCCC)c2)c1 [M3Pyr-10,10,10]	1	0.5		1	2	4	0.5	0.5	
CCCCCCCCCCC[n+]1cccc(CN(Cc2ccc[n+](CCCCCCCCCCC)c2)Cc2ccc[n+](CCCCCCCCCCC)c2)c1 [M3Pyr-11,11,11]	1	0.5		1	4	4	0.5	0.5	
CCCCCCCCCCCC[n+]1cccc(CN(Cc2ccc[n+](CCCCCCCCCCCC)c2)Cc2ccc[n+](CCCCCCCCCCCC)c2)c1 [M3Pyr-12,12,12]	1	1		1	8	4	1	0.5	
CCCCCCCCCCCCC[n+]1cccc(CN(Cc2ccc[n+](CCCCCCCCCCCCC)c2)Cc2ccc[n+](CCCCCCCCCCCCC)c2)c1 [M3Pyr-13,13,13]	1	0.5		2	8	2	1	0.25	
CCCCCCCCCCCCCC[n+]1cccc(CN(Cc2ccc[n+](CCCCCCCCCCCCCC)c2)Cc2ccc[n+](CCCCCCCCCCCCCC)c2)c1 [M3Pyr-14,14,14]	2	1		4	32	4	2	1	
CCCCCCCCCCCCCCCC[n+]1cccc(CN(Cc2ccc[n+](CCCCCCCCCCCCCCCC)c2)Cc2ccc[n+](CCCCCCCCCCCCCCCC)c2)c1 [M3Pyr-16,16,16]	8	2		125	≥ 250	4	2	4	
CCCCCCCCCCCCCCCCCC[n+]1cccc(CN(Cc2ccc[n+](CCCCCCCCCCCCCCCCCC)c2)Cc2ccc[n+](CCCCCCCCCCCCCCCCCC)c2)c1 [M3Pyr-18,18,18]	32	4		63	> 250	8	8	4	
